Among the data in article PMC12751012, “Nanoscale Direct-to-Biology Optimization and Structural Insights into Selective S. aureus TrmD Inhibitors” (Journal of Medicinal Chemistry, 2025) are inhibition values, retold here.

In the test the target is T1, S. aureus TrmD (Staphylococcus aureus, UniProt Q2FZ43).
T1 construct: made in house; host or cells: E. coli BL21
T1 sequence (Q2FZ43 1-245): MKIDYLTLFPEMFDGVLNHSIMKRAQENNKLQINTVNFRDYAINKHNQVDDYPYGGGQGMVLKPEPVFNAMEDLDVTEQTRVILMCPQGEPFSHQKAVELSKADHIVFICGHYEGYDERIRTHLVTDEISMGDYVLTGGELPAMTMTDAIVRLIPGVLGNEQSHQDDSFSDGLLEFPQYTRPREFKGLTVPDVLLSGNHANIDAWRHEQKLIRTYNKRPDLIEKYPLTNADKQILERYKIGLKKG
Briefly: nanoSAR direct-to-biology FP displacement screening of crude triazoles. The conditions noted are these: crude triazole at 1 μM, assuming full conversion; 500 nM TrmD, 10 nM tracer 4; read-out: % displaced tracer. The class given is binding. The source says:
Next, we conducted an S. aureus TrmD-targeting nanoSAR study. For this, alkyne 7 was reacted on a 96 nmol scale with an in-house diversity-oriented azide library (N = 320, mean pairwise Tanimoto similarity = 0.11) designed to cover a large chemical fragment space, generating a panel of 320 crude triazoles ready for FP assay investigation. The composition of the azide library is designed to be chemically diverse in several categories, including physicochemical properties such as polar surface area, lipophilicity, and the number of hydrogen bond donors and acceptors, as well as structural features like the number of aromatic rings (Figure S23). A complete list of chemical structures included in the azide library can be found in Table S4. In situ reaction conditions for CuAAC were adapted from Gehrtz et al., utilizing CuSO4, which is reduced in situ to Cu(I) by sodium ascorbate and stabilized by TBTA. Degassed water and DMSO (1:1) were used as solvents to prevent the oxidation from Cu(I) to Cu(II). For the synthesis of the triazole library, a master mix was prepared, containing all reaction components except the azides. All reactions were started by the addition of the respective azide in 24 μL at a final product concentration of 4 mM (96 nmol). Reaction mixtures were incubated for 16 h at room temperature and under an argon atmosphere in sealed 96-well plates.
For FP assay screening, we used 500 nM of S. aureus TrmD and 10 nM of tracer 4 in a total volume of 40 μL in 96-well plates. We performed control measurements and defined 10 nM of tracer 4 in buffer as 100% displacement and the DMSO control as 0% tracer displacement. […] The results of the FP screening were visualized in a waterfall plot and plate-based heatmaps (Figure , Figure S3).
Fluorescence polarization (FP) assays were performed as follows. The assays for H. influenzae TrmD have been described previously. All assays were conducted in technical triplicate using black 96-well half area plates. For the FP assays, a tracer (20 nM Cy5TPD for E. coli and H. influenzae TrmD, 10 nM tracer 4 for S. aureus TrmD) was mixed with the respective enzyme (2 μM E. coli TrmD, 2 μM H. influenzae TrmD, 500 nM S. aureus TrmD) in buffer (E. coli and H. influenzae TrmD: 50 mM HEPES, 500 mM NaCl, 5% Glycerol, pH 7.5, S. aureus TrmD: 40 mM Tris HCl, 100 mM NaCl, 10 mM MgCl2, 5% Glycerol, pH 7.5). The compounds were added in varying concentrations for K D-value determination. […] The Z-factor for tracer 4 was determined by measuring 48 replicates of the free tracer (positive controls, PC) and 48 replicates of a mixture of enzyme and tracer (negative controls, NC). The Z-factor is defined in terms of the means (μ) and standard deviations (σ) of the positive and negative controls and calculated as Z = 1–(3*(σnc + σpc)/(μnc–μpc)). […] Polarization values (mP) were determined from polarization-specific parallel and orthogonal fluorescence intensities. K D-values were calculated in GraphPad Prism 8.0.1 using the four-parameter Hill equation: y(% tracer bound) = bottom + ([ligand]-slope) × (top–bottom)/([ligand]-slope + K Dslope).
A commercial azide diversity library (Enamine) containing 320 azides at a concentration of 100 mM in DMSO in a 96-well tube rack was employed for this nanoSAR study. For the reaction of the azides with alkyne 7 via CuAAC, a master mix was prepared. […] The solvents were degassed with argon to avoid oxidation of the copper(I) during the reaction. To each well of a 96-well PCR plate (Applied Biosystems MicroAmp) were added 23 μL of the master mix and 1 μL of the 100 mM azide stock. The final concentrations in the Mastermix were: 8.7 mM sodium ascorbate (8.3 mM in reaction well), 1.1 mM TBTA (1.0 mM in reaction well), 4.3 mM 7 (4.1 mM in reaction well), 1.3 mM CuSO4×5 H2O (1.2 mM in reaction well).
For the compound `O=c1[nH]cnc2[nH]cc(-c3cn(-c4ccccc4)nn3)c12` [Compound 04F04, O=C1NC=NC=2NC=C(C=3N=NN(c4ccccc4)C3)C12], the inhibition at 1 µM came out at 33%. With `CN1CCN(CCn2cc(-c3c[nH]c4nc[nH]c(=O)c34)nn2)CC1` [Compound 03G10, O=C1NC=NC=2NC=C(C=3N=NN(C3)CC[N@H+]4CC[N@@H+](CC4)C)C12], the inhibition at 1 µM came to 11%. Then `O=c1[nH]cnc2[nH]cc(-c3cn(Cc4cc(C(F)F)on4)nn3)c12` [Compound 01G06, FC(F)C=1ON=C(C1)CN2N=NC(C=3C=4C(=O)NC=NC4NC3)=C2], with 38%; and `O=c1[nH]cnc2[nH]cc(-c3cn(-c4ccncc4)nn3)c12` [Compound 02C12, O=C1NC=NC=2NC=C(C=3N=NN(c4ccncc4)C3)C12], with 18%. Turning to `Cc1ccc2nc(Cn3cc(-c4c[nH]c5nc[nH]c(=O)c45)nn3)cn2c1` [Compound 01B02, O=C1NC=NC=2NC=C(C=3N=NN(C3)CC=4N=C5N(C4)C=C(C=C5)C)C12], the inhibition at 1 µM came to 57%. Then `N#CCC1(Cn2cc(-c3c[nH]c4nc[nH]c(=O)c34)nn2)CC1` [Compound 03A06, O=C1NC=NC=2NC=C(C=3N=NN(C3)CC4(CC#N)CC4)C12], with 65%. Then `O=c1[nH]cnc2[nH]cc(-c3cn(C[C@H]4COCCO4)nn3)c12` [Compound 03D10, O=C1NC=NC2=C1C(C3=CN(C[C@H]4COCCO4)N=N3)=CN2], with 57%.

Take `O=c1[nH]cnc2[nH]cc(-c3cn(Cc4cccc(Cl)c4)nn3)c12` [Compound 03D11, Clc1cc(ccc1)CN2N=NC(C=3C=4C(=O)NC=NC4NC3)=C2]: the inhibition at 1 µM amounted to 75%. Then `O=c1[nH]cnc2[nH]cc(-c3cn(Cc4nc5ccccc5o4)nn3)c12` [Compound 02G05, O=C1NC=NC=2NC=C(C=3N=NN(C3)CC=4Oc5c(N4)cccc5)C12], with 38%; and `O=c1[nH]cnc2[nH]cc(-c3cn(Cc4ccc(F)cc4)nn3)c12` [Compound 03E04, Fc1ccc(cc1)CN2N=NC(C=3C=4C(=O)NC=NC4NC3)=C2], with 85%. Regarding `O=c1[nH]cnc2[nH]cc(-c3cn([C@H]4CCNC4)nn3)c12` [Compound 03D07, O=C1NC=NC=2NC=C(C=3N=NN(C3)[C@@H]4C[NH2+]CC4)C12], the inhibition at 1 µM was determined as 27%.

Take `O=c1[nH]cnc2[nH]cc(-c3cn([C@H]4CCn5cccc5C4)nn3)c12` [Compound 02H10, O=C1NC=NC=2NC=C(C=3N=NN(C3)[C@@H]4CC=5N(C=CC5)CC4)C12]: the inhibition at 1 µM came to 24%. Turning to `N#CC1(Cn2cc(-c3c[nH]c4nc[nH]c(=O)c34)nn2)CCCCC1` [Compound 03E07, O=C1NC=NC=2NC=C(C=3N=NN(C3)CC4(C#N)CCCCC4)C12], the inhibition at 1 µM worked out at 69%. On to `O=c1[nH]cnc2[nH]cc(-c3cn(Cc4cscn4)nn3)c12` [Compound 02E07, S1C=NC(=C1)CN2N=NC(C=3C=4C(=O)NC=NC4NC3)=C2], for which the inhibition at 1 µM stood at 80%. Then `O=c1[nH]cnc2[nH]cc(-c3cn(C[C@@H]4CCCC4(F)F)nn3)c12` [Compound 01F12, F[C@@]1(F)[C@H](CN2N=NC(C=3C=4C(=O)NC=NC4NC3)=C2)CCC1], with 79%; and `O=C1NCCN1CCn1cc(-c2c[nH]c3nc[nH]c(=O)c23)nn1` [Compound 04G03, O=C1N(CCN2N=NC(C=3C=4C(=O)NC=NC4NC3)=C2)CCN1], with 15%; and `NS(=O)(=O)c1ccc(-n2cc(-c3c[nH]c4nc[nH]c(=O)c34)nn2)cc1` [Compound 02B06, S(=O)(=O)(N)c1ccc(N2N=NC(C=3C=4C(=O)NC=NC4NC3)=C2)cc1], with 17%. Then `O=c1[nH]cnc2[nH]cc(-c3cn(Cc4nc5ccccc5[nH]4)nn3)c12` [Compound 01B08, O=C1NC=NC=2NC=C(C=3N=NN(C3)CC4=Nc5c(N4)cccc5)C12], with 43%.

As for `CCOCCn1cc(-c2c[nH]c3nc[nH]c(=O)c23)nn1` [Compound 01B12, O=C1NC=NC=2NC=C(C=3N=NN(C3)CCOCC)C12], the inhibition at 1 µM came to 21%. Then `CCN(CC)CCn1cc(-c2c[nH]c3nc[nH]c(=O)c23)nn1` [Compound 01H09, O=C1NC=NC=2NC=C(C=3N=NN(C3)CC[NH+](CC)CC)C12], with 27%; and `O=c1[nH]cnc2[nH]cc(-c3cn(C[C@@H]4CCCCNC4)nn3)c12` [Compound 03H08, O=C1NC=NC=2NC=C(C=3N=NN(C3)C[C@H]4C[NH2+]CCCC4)C12], with 81%; and `O=c1[nH]cnc2[nH]cc(-c3cn(CCOC4CCSCC4)nn3)c12` [Compound 01H07, S1CCC(OCCN2N=NC(C=3C=4C(=O)NC=NC4NC3)=C2)CC1], with 54%. For `O=c1[nH]cnc2[nH]cc(-c3cn(CC4CC(F)(F)C4)nn3)c12` [Compound 02G04, F[C@@]1(F)C[C@@H](CN2N=NC(C=3C=4C(=O)NC=NC4NC3)=C2)C1] the value was 15%; for `O=c1[nH]cnc2[nH]cc(-c3cn(C[C@@H]4CC[C@@H]5C[C@@H]5C4)nn3)c12` [Compound 03A07, O=C1NC=NC=2NC=C(C=3N=NN(C3)C[C@H]4C[C@@H]5[C@@H](C5)CC4)C12], 84%; for `O=c1[nH]cnc2[nH]cc(-c3cn([C@@H]4CCOC4)nn3)c12` [Compound 03E01, O=C1NC=NC=2NC=C(C=3N=NN(C3)[C@H]4COCC4)C12], 27%. Then `CC(C)NC(=O)[C@H](C)n1cc(-c2c[nH]c3nc[nH]c(=O)c23)nn1` [Compound 03H02, O=C1NC=NC=2NC=C(C=3N=NN(C3)[C@H](C(=O)NC(C)C)C)C12], with 17%. Consider `NC(=O)c1cc(-n2cc(-c3c[nH]c4nc[nH]c(=O)c34)nn2)ccn1` [Compound 01F05, O=C(N)c1nccc(N2N=NC(C=3C=4C(=O)NC=NC4NC3)=C2)c1], for which the inhibition at 1 µM was determined as 16%. As to `Nc1ccc(-n2cc(-c3c[nH]c4nc[nH]c(=O)c34)nn2)cc1` [Compound 03D05, O=C1NC=NC=2NC=C(C=3N=NN(c4ccc(N)cc4)C3)C12], the inhibition at 1 µM turned out to be 2.34%. Then `CCC1(Cn2cc(-c3c[nH]c4nc[nH]c(=O)c34)nn2)COC1` [Compound 03F08, O=C1NC=NC=2NC=C(C=3N=NN(C3)CC4(COC4)CC)C12], with 76%. Then `O=c1[nH]cnc2[nH]cc(-c3cn(C4CNC4)nn3)c12` [Compound 03F12, O=C1NC=NC=2NC=C(C=3N=NN(C3)C4C[NH2+]C4)C12], with 42%; and `O=c1[nH]cnc2[nH]cc(-c3cn(CCN4CCC(O)CC4)nn3)c12` [Compound 01H11, O=C1NC=NC=2NC=C(C=3N=NN(C3)CC[N@H+]4CC[C@H](O)CC4)C12], with 38%. In the case of `Cc1cc(Cn2cc(-c3c[nH]c4nc[nH]c(=O)c34)nn2)no1` [Compound 03F02, O=C1NC=NC=2NC=C(C=3N=NN(C3)CC4=NOC(=C4)C)C12], the inhibition at 1 µM stood at 35%. Then `O=c1[nH]cnc2[nH]cc(-c3cn(Cc4cc(C5CC5)no4)nn3)c12` [Compound 01A07, O=C1NC=NC=2NC=C(C=3N=NN(C3)CC=4ON=C(C4)C5CC5)C12], with 77%.
